Assay type in all cases: cell-based
For assay [1], the system named is Wnt activity (Sp5-Luc reporter, TCF/LEF binding sites) in SW480 colon carcinoma cells. Put plainly: Screening assay for Wnt activity: Sp5-Luc reporter gene assay in stably transduced SW480 cells. Particulars: Homo sapiens, overnight incubation. Put shortly:
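Luminescence (BrightGlo) was normalised to DMSO-only wells and fitted with a four-parameter variable-slope model for EC50; beyond 10 μM, % inhibition at 10 μM is given. Stable Sp5-Luc SW480 reporter cells, 4,000/well in 1% FBS, were exposed overnight at 37 °C to compounds, top 10 μM, 1:3 dilutions, 0.1% DMSO.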
For orientation: A reporter such as luciferase makes a cellular process visible.

A further assay concerns SW480 colon cancer cells. Put plainly: Cell viability assay (CellTiter-Blue) in SW480 colon cancer cells. As to conditions: Homo sapiens, 96 h, four days, CellTiter-Blue. Put shortly: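 Approximately 2×10^3 SW480 cells per well are seeded with compound (8 points, threefold steps, top 10 μM) and incubated four days at 37 °C. CellTiter-Blue is then added for about 3 h and fluorescence read. Non-linear regression gives EC50; for values beyond 10 μM, percent inhibition at that concentration is listed.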
For orientation: Resazurin is reduced to fluorescent resorufin, in cell work by metabolically active cells.

The test system of assay [2] is primary human fibroblasts derived from IPF patients (LL29 cells) treated with TGF-β1; α-smooth muscle actin (αSMA). Put plainly: Inhibition of the fibrotic process: αSMA staining in TGF-β1 treated primary human fibroblasts from IPF patients (LL29 cells). As to conditions: Fibroblast, 96 h, TGF-β1 20 ng/mL, 4 days, % cells positive for αSMA. Put shortly: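 Compound dilutions from 10 μM down to […] are dispensed, LL29 cells added in F12 with 1% FBS, and TGF-β1 (20 ng/mL) follows after 1 h. After 4 days, live-cell αSMA positivity is measured by immunofluorescence and normalized to TGF-β1-treated wells to derive EC50.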

A further assay concerns IL-6 (THP-1 cells). Put plainly: Inhibition of IL-6 in LPS-stimulated THP-1 human monocyte cells (HTRF). Particulars: inhibition of IL-6 in LPS-stimulated THP-1 cells, HTRF, 10-point dose-response starting from 10 μM. A digest of the protocol: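 THP-1 cells, serum-reduced (1% FBS) for 24 h, were preincubated with compound (10-point 1:3 series from 10 μM, 0.1% DMSO) for 2 h, then stimulated with 500 ng/mL LPS for 22 h at 37° C. IL-6 was read by HTRF (665/620 nm ratio) and normalized to DMSO. EC50 from four-parameter fit; % inhibition at 10 μM given if EC50 >10 μM.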
On the technique in general: Time-resolved FRET reads energy transfer from a long-lived donor to a nearby acceptor.

The term EC50 denotes the midpoint of the concentration-response curve. The low end stands for a more potent agent, the high end for a less potent agent. As for `CCC(=O)Nc1cncc(-c2cc3c(-c4cc5c(-c6cccs6)cccc5[nH]4)n[nH]c3cn2)c1` [Compound 337, N-(5-(3-(4-(Thiophen-2-yl)-1H-indol-2-yl)-1H-pyrazolo[3,4-c]pyridin-5-yl)pyridin-3-yl)propionamide], the concentration for a half-maximal effect (EC50) was found to be 911 nM in assay [1], 3420 nM in the assay on SW480 colon cancer cells, 387 nM in assay [2] and 7120 nM with IL-6 (THP-1 cells).

In the case of `CN(C)c1cncc(-c2cc3c(-c4cc5c(-c6cccs6)cccc5[nH]4)n[nH]c3cn2)c1` [Compound 343, N,N-Dimethyl-5-(3-(4-(thiophen-2-yl)-1H-indol-2-yl)-1H-pyrazolo[3,4-c]pyridin-5-yl)pyridin-3-amine], the 50% effective concentration (EC50) in assay [1] is 1130 nM; in the assay on SW480 colon cancer cells, 696 nM; in assay [2], 134 nM; in the assay with IL-6 (THP-1 cells), 7750 nM.

On to `CCCC(=O)Nc1cncc(-c2cc3c(-c4cc5c(-c6cccs6)cccc5[nH]4)n[nH]c3cn2)c1` [Compound 353, N-(5-(3-(4-(Thiophen-2-yl)-1H-indol-2-yl)-1H-pyrazolo[3,4-c]pyridin-5-yl)pyridin-3-yl)butyramide], for which the concentration giving a half-maximal response (EC50) in assay [1] was 4910 nM; in the assay on SW480 colon cancer cells, 4010 nM; in assay [2], 56 nM; in the assay on IL-6 (THP-1 cells), 1890 nM.

Turning to `c1ccc(CNCc2cncc(-c3cc4c(-c5cc6c(-c7cccs7)cccc6[nH]5)n[nH]c4cn3)c2)cc1` [Compound 360, N-Benzyl-1-(5-(3-(4-(thiophen-2-yl)-1H-indol-2-yl)-1H-pyrazolo[3,4-c]pyridin-5-yl)pyridin-3-yl)methanamine], the concentration giving a half-maximal response (EC50) is 1780 nM in assay [1], 3470 nM in the assay on SW480 colon cancer cells, 373 nM in assay [2] and 1430 nM in the assay with IL-6 (THP-1 cells).

For `CN(C)CCNc1cc(F)cc(-c2cccc3[nH]c(-c4n[nH]c5cnc(-c6cncc(NC(=O)Cc7ccccc7)c6)cc45)cc23)c1` [Compound 458, N-(5-(3-(4-(3-((2-(Dimethylamino)ethyl)amino)-5-fluorophenyl)-1H-indol-2-yl)-1H-pyrazolo[3,4-c]pyridin-5-yl)pyridin-3-yl)-2-phenylacetamide], the half-maximal effective concentration (EC50) was found to be 3590 nM in assay [1], 4550 nM in the assay on SW480 colon cancer cells, 2840 nM in assay [2] and 3300 nM in the assay on IL-6 (THP-1 cells).

With `CN(C)CCNc1cc(F)cc(-c2cccc3[nH]c(-c4n[nH]c5cnc(-c6cncc(NC(=O)C7CC7)c6)cc45)cc23)c1` [Compound 468, N-(5-(3-(4-(3-((2-(Dimethylamino)ethyl)amino)-5-fluorophenyl)-1H-indol-2-yl)-1H-pyrazolo[3,4-c]pyridin-5-yl)pyridin-3-yl)cyclopropanecarboxamide], the 50% effective concentration (EC50) in assay [1] came out at 1310 nM; in the assay with SW480 colon cancer cells it was 1980 nM; in assay [2], 3510 nM; in the assay on IL-6 (THP-1 cells), 866 nM.

Regarding `CC(C)Nc1cncc(-c2cc3c(-c4cc5c(-c6cc(F)cc(CNS(C)(=O)=O)c6)cccc5[nH]4)n[nH]c3cn2)c1` [Compound 488, N-(3-Fluoro-5-(2-(5-(5-(isopropylamino)pyridin-3-yl)-1H-pyrazolo[3,4-c]pyridin-3-yl)-1H-indol-4-yl)benzyl)methanesulfonamide], the 50% effective concentration (EC50) was found to be 157 nM in assay [1], 688 nM in the assay on SW480 colon cancer cells, 182 nM in assay [2] and 526 nM in the assay with IL-6 (THP-1 cells).

Take `CS(=O)(=O)NCc1cc(F)cc(-c2cccc3[nH]c(-c4n[nH]c5cnc(-c6cncc(NC(=O)C7CCCCC7)c6)cc45)cc23)c1` [Compound 499, N-(5-(3-(4-(3-Fluoro-5-(methylsulfonamidomethyl)phenyl)-1H-indol-2-yl)-1H-pyrazolo[3,4-c]pyridin-5-yl)pyridin-3-yl)cyclohexanecarboxamide]: the EC50 was determined as 1760 nM in assay [1], 4540 nM in the assay with SW480 colon cancer cells, 4790 nM in assay [2] and 1780 nM with IL-6 (THP-1 cells).

As to `CS(=O)(=O)NCc1cc(F)cc(-c2cccc3[nH]c(-c4n[nH]c5cnc(-c6cncc(CNCC7CCCC7)c6)cc45)cc23)c1` [Compound 501, N-(3-(2-(5-(5-(((Cyclopentylmethyl)amino)methyl)pyridin-3-yl)-1H-pyrazolo[3,4-c]pyridin-3-yl)-1H-indol-4-yl)-5-fluorobenzyl)methanesulfonamide], the EC50 in assay [1] was found to be 1340 nM; in the assay with SW480 colon cancer cells it was 2250 nM; in assay [2], 463 nM; in the assay with IL-6 (THP-1 cells), 1030 nM.

With `CS(=O)(=O)NCc1cc(F)cc(-c2cccc3[nH]c(-c4n[nH]c5cnc(-c6cncc(CN7CCC(F)(F)C7)c6)cc45)cc23)c1` [Compound 502, N-(3-(2-(5-(5-((3,3-Difluoropyrrolidin-1-yl)methyl)pyridin-3-yl)-1H-pyrazolo[3,4-c]pyridin-3-yl)-1H-indol-4-yl)-5-fluorobenzyl)methanesulfonamide], the concentration for a half-maximal effect (EC50) in assay [1] came to 253 nM; in the assay with SW480 colon cancer cells it was 882 nM; in assay [2] it was 28 nM; in the assay on IL-6 (THP-1 cells), 481 nM.

`Fc1cccc(-c2cccc3[nH]c(-c4n[nH]c5cnc(-c6cncc(OCc7ccccc7)c6)cc45)cc23)c1` [Compound 546, 5-(5-(Benzyloxy)pyridin-3-yl)-3-(4-(3-fluorophenyl)-1H-indol-2-yl)-1H-pyrazolo[3,4-c]pyridine]: the concentration giving a half-maximal response (EC50) came out at 421 nM in assay [1], 365 nM with SW480 colon cancer cells, 234 nM in assay [2] and 3990 nM in the assay on IL-6 (THP-1 cells).

`Cc1ncc(-c2cc3c(-c4cc5ccccc5[nH]4)n[nH]c3cn2)n1C` [Compound 681, 5-(1,2-Dimethyl-1H-imidazol-5-yl)-3-(1H-indol-2-yl)-1H-pyrazolo[3,4-c]pyridine]: the half-maximal effective concentration (EC50) in assay [1] was found to be 754 nM; in the assay on SW480 colon cancer cells, 1520 nM; in assay [2] it was 292 nM; in the assay on IL-6 (THP-1 cells), 954 nM.

For `c1cnc2cc(-c3n[nH]c4cnc(-c5cncc(OC6CCCCC6)c5)cc34)[nH]c2c1` [Compound 1025, 5-(5-(Cyclohexyloxy)pyridin-3-yl)-3-(1H-pyrrolo[3,2-b]pyridin-2-yl)-1H-pyrazolo[3,4-c]pyridine], the 50% effective concentration (EC50) in assay [1] is 171 nM; with SW480 colon cancer cells, 1430 nM; in assay [2], 584 nM; in the assay on IL-6 (THP-1 cells) it was 353 nM.
